In US20140065655A1, “SCREENING METHOD FOR SUBSTANCE ACTING ON MAINTENANCE OF EPITHELIAL PROPERTIES OF CELL” (SCIVAX CORPORATION, priority 2012, published 2014):

Assays:
[1] = test system: N-cadherin; assay: qRT-PCR expression level of N-cadherin gene (mesenchymal marker) in A549 spheroids; format: cell-based, human; settings: A549, SB431542 10 μM with TGF-β2 5 ng/ml and TNF-α 10 ng/ml, sixth day, corrected by TBP (FIG. 7)
Protocol: (§1) In order to verify whether or not a change in the morphology of the spheroid confirmed in the second example reflects an epithelial-mesenchymal transition and an epithelial-mesenchymal transition inhibition, a result of measuring an expression level of a gene that is known as an epithelial or mesenchymal marker through qRT-PCR is shown in FIGS. 6 to 9. The processes from (1) pre-incubation to (3) addition of the epithelial-mesenchymal transition inducer and inhibitor were carried out likewise the second example. Next, at the sixth day of the culturing, all RNAs were extracted from each sample using RNeasy Plus Mini Kit (made by QIAGEN corporation), and such RNAs having undergone reverse transcription using PrimeScript RT reagent Kit (made by TAKARABIO Inc.) were used for qRT-PCR. SYBER Premix Ex Tagll (made by TAKARABIO Inc.) was used for PCR. Moreover, Thermal Cycler Dice (made by TAKARABIO Inc.) was used for a reaction and a detection. Note that data is corrected by the expression level of internal standard gene (TBP), and is shown as a relative value when the expression level of the control is taken as 1.

[2] = test system: human-lung-cancer-cells derived strain A549; assay: Effect of epithelial-mesenchymal transition inhibitor on morphology and hypoxic area (LOX-1 red signal) of spheroids on NanoCulture plate; format: cell-based
Protocol: 5-%-FBS-containing DMEM culture medium and 1.0-%-Matrigel (registered trademark) containing DMEM culture medium were added in respective wells of a cell culture vessels NanoCulture (registered trademark) plate (made by SCIVAX corporation, 384-well plate, material of concavity-convexity structure surface=polymethylpentene (TPX made by MITSUI Chemical Co., Ltd.), planar shape of concavo-convex structure=square, width between unit structures (line width)=700 nm, minimum internal diameter of unit structure=3 μm, and depth=1 μm) by 25 μl, and were subjected to centrifugal force for five minutes at 1000×g.
A cell suspension having human-lung-cancer-cells derived strain A549 adjusted to 13.5×10^4 cells/ml by a 5-%-FBS-containing DMEM culture medium was added to each well of the above-explained plate by 25 μl (the number of cells was 3.4×10^3 cells/well, and the final concentration of the culture medium additive was 5% FBS and 0.5% Matrigel).
At the third day of the culturing, TGF-β2 (made by R&D systems corporation, 302-B2-002) and TNF-α (made by R&D systems corporation, 210-TA-010) which were epithelial-mesenchymal transition inducers were added to each well in such a way that a final concentration became 5 ng/ml and 10 ng/ml, respectively. While at the same time, SB431542 (made by Miltenyi Biotec corporation, 130-095-561) that was an inhibitor of TGF-β2 was added in such a way that a final concentration became 10 μM.
Dimethyl-sulfoxide was added to all wells where no SB431542 was added in such a way that a final concentration became 0.1%.
At the fifth day of the culturing, a hypoxic area detection reagent LOX-1 (made by SCIVAX corporation) was added to each well in such a way that a final concentration became 2 μM. LOX-1 is a reagent that contains iridium complex which emits red phosphorescence.
An observation through a fluorescent microscope was carried out at the sixth day of the culturing.

[3] = test system: E-cadherin; assay: qRT-PCR expression level of E-cadherin gene (epithelial marker) in A549 spheroids; format: cell-based, human; settings: A549, SB431542 10 μM with TGF-β2 5 ng/ml and TNF-α 10 ng/ml, sixth day, corrected by TBP (FIG. 6)
Protocol: as §1

[4] = A549, SB431542 10 μM with TGF-β2 5 ng/ml and TNF-α 10 ng/ml, LOX-1 2 μM, sixth day

Question: Which results are given for NC(=O)c1ccc(-c2nc(-c3ccc4c(c3)OCO4)c(-c3ccccn3)[nH]2)cc1 [SB431542]?
Answer: expression level of N-cadherin [1]: decreased to substantially same level as that of the control; morphology of spheroids (bright field image) ([2]; A549, SB431542 10 μM with TGF-β2 5 ng/ml and TNF-α 10 ng/ml added at third day, observed sixth day, compared with well where no inhibitor was added): the collapse of spheroids were suppressed and the contours of the spheroids had a small concavity and convexity; red intensity and red area (hypoxic area, LOX-1, fluorescent field image) [2, 4]: the red intensity was high and the red area was large; red signal (quantified, FIG. 5) relative to the well where no inhibitor was added [2, 4]: about twice; expression level of E-cadherin [3]: ~60 % of the control
